Results reported in a melting point compilation (Tetko et al.; mined from patent text by program, amines drawn as free bases though some values may be those of a salt).

Row | melting point [°C] | Structure (SMILES)
1 | 99 to 101 | COC(=O)c1cncc(-c2ccc(OC)cc2)c1
2 | 282 to 283 | Nc1ncnc2[nH]c(Br)c(-c3ccc(Oc4ccccc4)cc3)c12
3 | 148 to 150 | CCN(CC)CC1CCCCN1CCNC(=O)N1c2ccc(C)cc2C(=O)Nc2cccnc21 (stereo unspecified)
4 | 50 to 53 | Cc1cc(OC(=O)C(C)(C)C)c(C)c(C)c1OCc1ccccc1
5 | 64 to 65 | OCCc1cc2c(cc1Cc1ccccc1)OCO2
6 | 201 to 203 | CCCCc1cc(Cn2cnc3c(N)nc4ccccc4c32)no1
7 | 112 to 115 | COc1cc(C(C)N(O)C(N)=O)ccc1OCCc1ccccc1 (stereo unspecified)
8 | 214 | COc1ccc(S(=O)(=O)C2(C(=O)NO)CCN(Cc3ccc(-c4ccccn4)cc3)CC2)cc1
9 | 51 to 54 | COc1cc([N+](=O)[O-])c2nccc(C)c2c1OCCCCCc1cccs1
10 | 113 | Cc1nc(OCc2cccc(C(F)(F)F)c2)c(C(=O)Nc2ccccc2)s1
11 | 301 to 302 | Nc1nc(NC(=O)c2cccnc2)nc(-c2ccc3ccccc3c2O)n1
12 | 220 | Cc1cc(-c2cnn3c(C(F)(F)F)cc(-c4ccc(Cl)cc4)nc23)ccn1
13 | 246 to 247 | CC(C)(C)C(NC(=O)c1ccccc1)Nc1c(Nc2cccnc2)c(=O)c1=O (stereo unspecified)
14 | 183 to 186 | COc1ccc(C(=O)c2cccc(C(=O)O)c2)cc1
15 | 118 to 120 | CNc1nc2ccc(CCc3ccccn3)cc2s1
16 | 260 to 265 | O=c1c2ccccc2sc2c(O)ccc(Cl)c12
17 | 150 to 152 | Cc1cccc(OCC2=NCCN2C(=O)Nc2ccccc2)c1C
18 | 134 to 136 | O=C(CCN1CCN(c2ccnc3ccccc23)CC1)c1csc2ccccc12
19 | 117 | COC=C(C(=O)OC)c1ccccc1C=Cc1cscn1
20 | 109 to 111 | COc1ccccc1N1CCN(CCCc2ccc(C3CCC(=O)N3)cc2)CC1 (stereo unspecified)
21 | 134 | Cc1ncsc1C(O)c1ccc(Cl)cc1 (stereo unspecified)
22 | 51 to 52 | COc1cc(CCc2ccc(C)cc2)cc(OC)c1OC
23 | 117 to 122 | COC(=O)c1ccc(Cl)cc1C1(c2ccccc2F)OCC(CCl)O1 (stereo unspecified)
24 | 248 to 250 | O=c1[nH]c(=Cc2ccc(OCc3ccccc3)cn2)c(=O)[nH]c1=Cc1ccccn1

More lines, now with the values behind:

Row | Structure (SMILES) | melting point [°C]
25 | O=C(Nc1ccc(OCCCN2CCc3ccccc3C2)cc1)c1cccc2c(=O)c3ccccc3[nH]c12 | 182
26 | CC(c1cccnc1)n1nnc2cc3c(cc2c1=O)OC1CCCN1C3=O (stereo unspecified) | 195 to 196
27 | CC(C)(C)c1nc(C(=O)c2cc[nH]n2)nc(C(C)(C)C)c1O | 156 to 161
28 | COC(=O)c1ccc(OCCC2CCN(c3cc(Cl)nnc3Cl)CC2)cc1 | 115 to 117
29 | CC=C(NC(=O)CCC1CCCC1)C(=O)O | 180 to 182
30 | CC(C)(C)OC(=O)N(Cc1ccccc1)C1CN(C(c2ccccc2)c2ccccc2)C1 | 117 to 118
31 | c1ccc2c3c([nH]c2c1)CCC3 | 135
32 | COc1cc(C(=O)N2CCCC2CO)c([N+](=O)[O-])cc1OC (stereo unspecified) | 124 to 128
33 | COc1cc2c3c(c1)c(Cl)c(C(=O)N1CCc4ccccc41)c(=O)n3CCO2 | 158 to 160
34 | CCCCC1=NC2(CCCC2)C(=O)N1Cc1ccc(-c2ccccc2S(=O)(=O)Nc2noc(C)c2C)c(CN2CCCC2=O)c1 | 97 to 103
35 | C=C(C)C(=O)OCc1ccc(C#Cc2ccc(OC(=O)C(=C)C)cc2)cc1 | 65
36 | CCCCOc1ccc2c(c1)CCC(C(=O)O)=C2 | 148 to 150
37 | C/C=C/C(=O)NC(=O)OC(C)(C)C | 138 to 139
38 | CC(C)[C@H](NC(=O)[C@@H](CSC(=O)c1ccccc1)SC(=O)c1ccccc1)C(=O)N1CCC[C@H]1C(=O)O | 85 to 93
39 | Cc1cn(COCCO)c(=O)[nH]c1=O | 138 to 140
40 | C=CCCCCNC(=O)c1cnc(OCC(O)CNC(C)(C)C)s1 (stereo unspecified) | 80 to 81
41 | CC(C)(C)c1cc(C2CCC3SC2CCC3c2cc(C(C)(C)C)c(O)c(C(C)(C)C)c2)cc(C(C)(C)C)c1O (stereo unspecified) | 247 to 250
42 | CCN1C(=O)CCCc2cc(Nc3ncc(Cl)c(N[C@@H]4CCCC[C@H]4NS(C)(=O)=O)n3)c(OC)cc21 | 120 to 128
43 | O=C(c1ccccc1)c1ccc(OCCCCCCCCBr)cc1 | 59 to 61
44 | Cc1ccc(N2C(=O)C(O)=C(C(=NOCC(=O)O)c3ccc(C(C)C)cc3)C2c2ccc(C(C)C)cc2)nn1 (stereo unspecified) | 234
45 | S=C(NCc1ccccc1)Nc1ccc(NC(=S)NCc2ccccc2)cc1 | 198
46 | COC(=O)Cc1ccccc1OCc1ccc(N(Cc2nc(-c3ccccc3)oc2C)C(=O)OC(C)(C)C)cc1 | 85 to 86
47 | O=C(CC1CCCCCC1)c1cn(CCO)c2cccc(Cl)c12 | 113 to 119
48 | CNS(=O)(=O)c1cc(C(=O)CCCCCl)cc2c1CCC2 | 107 to 109

Row | Structure (SMILES) | melting point [°C]
49 | CC(C)OC(=O)c1cc(-n2c(=O)[nH]c(CF)c(F)c2=O)c(F)cc1Cl | 171 to 173
50 | C#CC(C)(C)OC(C)Oc1ccc(NC(=O)N(C)C)cc1Cl (stereo unspecified) | 99 to 101
51 | CCCn1c(=O)c2[nH]c(/C=C/c3cccnc3)nc2n(CCC)c1=O | 265 to 267
52 | COc1ccc2c(c1)c(CC(=O)OCC(=O)N(C)CCO[N+](=O)[O-])c(C)n2C(=O)c1ccc(Cl)cc1 | 118 to 122
53 | O=C1NC(=O)C(S(=O)(=O)c2ccccc2)S1 (stereo unspecified) | 130 to 133
54 | Nc1nc2c(ncn2OC(CO)CCP(=O)(O)O)c(=O)[nH]1 (stereo unspecified) | 177 to 178
55 | N[C@@H](CCCCNC(=O)NCc1ccccc1)C(=O)N1CC(F)(F)C(F)(F)C1 | 89 to 92
56 | Cc1cccc(NC(=O)NC2N=C(c3ccccc3F)c3ccccc3N(Cc3cc4ccccc4o3)C2=O)c1 (racemic) | 213 to 214
57 | CN1CCC(c2c[nH]c3ccc(OS(=O)(=O)c4ccccc4F)cc23)CC1 | 180 to 182
58 | CS(=O)(=O)c1ccc(-c2cc(F)c(F)cc2-c2ccc3c(c2)OCO3)cc1 | 110 to 111
59 | O=C(O)c1cn(CCO)c2cc(Cl)c(F)cc2c1=O | 266
60 | CCOC(=O)c1ncn2c1CN=C(c1ccccc1)c1cc(I)ccc1-2 | 221 to 222
61 | Cc1c(F)c(F)c(C(=O)NC(C(C)C)C(C)C)c(F)c1F | 184 to 187
62 | O=C(O)Cc1c(Cl)cc([N+](=O)[O-])cc1Cl | 206 to 207
63 | CC(=O)CC(=O)Nc1cccc(C(F)(F)F)c1 | 109 to 110
64 | CCC1(C)COP(=O)(Cc2ccc([N+](=O)[O-])cc2)OC1 (stereo unspecified) | 184 to 185
65 | COc1ccc(C2N3CCSC3=NC2(O)c2ccc(F)cc2)cc1 (stereo unspecified) | 150 to 151
66 | CC(c1ccc2c(=O)c3ccccc3ccc2c1)C1N(c2ccccc2)CCN1c1ccccc1 (stereo unspecified) | 81 to 89
67 | CC12CCCc3cc(C(=O)O)cc(c31)CCC2 | 213 to 215
68 | CC(C)Cn1cc(C(=O)O)c2ccc(Cl)cc21 | 205 to 206
69 | CCC(C)c1ccccc1N (stereo unspecified) | 89 to 91
70 | Nc1cc(NC(=O)c2ccc(Cl)c(Cl)c2)ccc1F | 151 to 153
71 | COc1ccc(-c2cc(=O)n(CC(C)C)nc2-c2ccc(OC)c(F)c2)cc1F | 154
